Patent publication US6569834B1, “Elucidation and synthesis of antineoplastic tetrapeptide w-aminoalkyl-amides” (priority 1992, dated 2003)
Converted amounts (≈) assume the structure as drawn.

How the values were obtained:
Format in all cases: cell-based
[1] = tested on: OVCAR-3; assay: Human cancer cell growth inhibition, ovarian OVCAR-3
Description: (§1) Only two hundred years ago, many diseases ravaged humankind. Many of these diseases have been controlled or eradicated. In the development of the means to treat or control these diseases, work with the appropriate common experimental animals was of critical importance. With the various types of cancers, and with the HIV virus, such work is presently ongoing. The research for the treatment of various types of cancer is coordinated by the National Cancer Institute (NCI). NCI, as a government entity, has been charged with assisting anti-cancer research. To establish whether a substance has anti cancer activity, NCI has established a protocol. This protocol, which involves testing a substance against a cell line panel containing 60 human tumor cell lines, has been verified, and is accepted in scientific circles. This protocol, and the established statistical means of evaluating the results obtained therefrom have been amply described in the literature. See e.g. Principles & Practice of Oncology PPO Updates, Volume 3, Number 10, October 1989, by Michael R. Boyd, M. D., Ph.D., for a description of the protocol. The statistical analysis is explained in “Display and Analysis of Patterns of Differential Activity of Drugs Against Human Tumor Cell Lines: Development of Mean Graph and COMPARE Algorithm” Journal of the National Cancer Institute Reports Vol. 81, No. 14, Pg. 1088, July 14, 1989, by K. D. Paull et al. Both articles are incorporated herein by this reference as if fully set forth.
(§2) The extraordinary inhibition of cell growth shown by the tetrapeptide w-aminoalkylamides 6a-d against six major types of human cancer and against the murine P388 lymphocytic leukemia cell line has been presented in Table I.

[2] = tested on: KM20L2; assay: Human cancer cell growth inhibition, colon KM20L2
Description: as §1, §2

[3] = tested on: A498; assay: Human cancer cell growth inhibition, renal A498
Description: as §1, §2

[4] = tested on: SF-295; assay: Human cancer cell growth inhibition, CNS SF-295
Description: as §1, §2

[5] = tested on: NCI-460; assay: Human cancer cell growth inhibition, Lung-NSC NCI-460
Description: as §1, §2

[6] = tested on: SK-MEL-3; assay: Human cancer cell growth inhibition, melanoma SK-MEL-3
Description: as §1, §2

[7] = tested on: P-388; assay: Cancer cell growth inhibition, murine P388 lymphocytic leukemia cell line; set-up: unit not given here; conditions: Mouse leukemia cell P-388
Description: as §2

[8] = tested on: human cancer cell line; assay: Human cancer cell line activity compared to dolastatin 10

| Molecule | GI-50 [1] [µg/mL] | TGI [1] [ng/mL] | GI-50 [2] [µg/mL] | TGI [2] [ng/mL] | GI-50 [3] [µg/mL] | TGI [3] [ng/mL] | GI-50 [4] [µg/mL] | TGI [4] [ng/mL] | GI-50 [5] [µg/mL] | TGI [5] [ng/mL] | GI-50 [6] [µg/mL] | TGI [6] [ng/mL] | Cancer cell growth inhibitory activity [7] | human cancer cell line activity as compared to dolastatin 10 [8] |
| --- | --- | --- | --- | --- | --- | --- | --- | --- | --- | --- | --- | --- | --- | --- |
| CC[C@H](C)[C@@H]([C@@H](CC(=O)N1CCC[C@H]1[C@H](OC)[C@@H](C)C(=O)NCCc1ccccn1)OC)N(C)C(=O)[C@@H](NC(=O)[C@H](C(C)C)N(C)C)C(C)C [Peptide 6a, [2S-[1[1R*(R*),2S*],2R*[1S*,2S*]]]-N,N-dimethyl-L-valyl-N-[2-methoxy-4-[2-[1-methoxy-2-methyl-3-oxo-3-[[2-(2-pyridyl)ethyl]amino]propyl]-1-pyrrolidinyl-1-(methylpropyl)-4-oxobutyl]-N-methyl-L-valineamide] | 0.000039 | 0.21 (≈ 0.000299 µM) | 0.000062 | 1.1 (≈ 0.00156 µM) | 0.00043 | <10 | 0.00035 | <10 | 0.00024 | 0.8 (≈ 0.00114 µM) | 0.000065 | 0.77 (≈ 0.0011 µM) | 0.000713 | – |
| CC[C@H](C)[C@@H]([C@@H](CC(=O)N1CCC[C@H]1[C@H](OC)[C@@H](C)C(=O)NCCN1CCOCC1)OC)N(C)C(=O)[C@@H](NC(=O)[C@H](C(C)C)N(C)C)C(C)C [Peptide 6b, [2S-[1[1R*(R*),2S*],2R*[1S*,2S*]]]-N,N-dimethyl-L-valyl-N-[2-methoxy-4-[2-[1-methoxy-2-methyl-3-oxo-3-[[2-(4-morpholino)ethyl]amino]propyl]-1-pyrrolidinyl-1-(methylpropyl)-4-oxobutyl]-N-methyl-L-valineamide] | <0.0001 | <0.1 | <0.0001 | <0.1 | <0.0001 | <0.1 | <0.0001 | <0.1 | <0.0001 | <0.1 | <0.0001 | <0.1 | 0.0736 | – |
| CC[C@H](C)[C@@H]([C@@H](CC(=O)N1CCC[C@H]1[C@H](OC)[C@@H](C)C(=O)NCCN(C)C)OC)N(C)C(=O)[C@@H](NC(=O)[C@H](C(C)C)N(C)C)C(C)C [Peptide 6c, [2S-[1[1R*(R*),2S*],2R*[1S*,2S*]]]-N,N-dimethyl-L-valyl-N-[2-methoxy-4-[2-[1-methoxy-2-methyl-3-oxo-3-[[2-dimethylamino-ethyl]amino]propyl]-1-pyrrolidinyl-1-(methylpropyl)-4-oxobutyl]-N-methyl-L-valineamide] | 0.0028 | 8.6 (≈ 0.0129 µM) | <0.01 | <10 | 0.0025 | 5.6 (≈ 0.00837 µM) | 0.0033 | <10 | 0.0051 | <10 | <0.01 | <10 | <0.1 | – |
| CC[C@H](C)[C@@H]([C@@H](CC(=O)N1CCC[C@H]1[C@H](OC)[C@@H](C)C(=O)NCCCN(C)C)OC)N(C)C(=O)[C@@H](NC(=O)[C@H](C(C)C)N(C)C)C(C)C [Peptide 6d, [2S-[1[1R*(R*),2S*],2R*[1S*,2S*]]]-N,N-dimethyl-L-valyl-N-[2-methoxy-4-[2-[1-methoxy-2-methyl-3-oxo-3-[[3-dimethylamino-propyl]amino]propyl]-1-pyrrolidinyl-1-(methylpropyl)-4-oxobutyl]-N-methyl-L-valineamide] | <0.01 | <10 | <0.01 | <10 | <0.01 | <10 | <0.01 | <10 | 0.0072 | <10 | <0.01 | <10 | 0.881 | – |
| R-Doe-isodolastatin 10 | – | – | – | – | – | – | – | – | – | – | – | – | – | did not show any significant difference |
